{
  "source": "patent US20180303101A1",
  "about": "“METHOD OF IMPROVING GRASS QUALITY” (priority 2004, published 2018)",
  "format_in_all_cases": "in vivo",
  "key": {"[1]": {"system": "Penncross creeping bentgrass", "test": "Shoot growth rate in canopy height at high temperature treatment (Example 1)", "settings": "plants with and without pretreatment", "source_text": "(§1) The following test methods were used to compare the effectiveness of a phthalocyanine composition according to the invention with known compositions. The following compositions were used in the experiments: Pigment Green 7 obtained from Sun Chemical Corporation as the water-dispersible product SUN T-64-1660 (containing 45 to 55 wt. % of Pigment Green 7) was used alone. A mixture of Pigment Green 7 and fosetyl-al was used as the commercially available product Chipco® Signature™ fungicide from Bayer Environmental Science, Montvale, N.J. The compound fosetyl-al was used as Chipco® Aliette® WDG fungicide available from Bayer Environmental Science, Montvale N.J.\n(§2) Seeds of “Penncross” creeping bentgrass were sown in polyvinyl chloride (PVC) tubes (10 cm in diameter and 20 cm in length) filled with coarse sand. Plants were kept in a growth chamber for 90 days before treatment stated to allow root and canopy establishment. The daily temperature in the growth chamber was 20/16° C., the photosynthetic photon flux density was 400 μmol m−2 s−1, and the photoperiod was 12 hours/day. Turf was mowed twice weekly at 4 mm with scissors, irrigated every other day until there was free drainage from the bottom of tubes, and fertilized weekly with 40 ml full-strength Hoagland's nutrient solution (Hoagland and Arnon, 1950). Insecticide was applied to kill whitefly when necessary. […]"}, "[2]": {"system": "Penncross creeping bentgrass", "test": "Tiller density at high temperature treatment (Example 1)", "source_text": "as §1, §2"}, "[3]": {"system": "creeping bentgrass (variety Penncross) turf", "test": "Bentgrass color rating after foliar spray (Example 2)", "settings": "6 weeks after treatment; 6.8, 13.9 and 20.4 grams per 1000 sq. ft.; analysis of variance", "source_text": "(§3) Pigment Green 7 was suspended in water and applied as a foliar spray to creeping bentgrass (variety Penncross) turf with a pressurized sprayer at a spray volume of 1.37 gallons of water per 1000 sq. ft. (ca. 560 l/ha). Pigment Green 7 was applied at rates of 6.8, 13.9, and 20.4 grams per 1000 sq. ft. (0.73, 1.5, and 2.2 kg/ha, respectively). Each treatment was replicated 4 times. An untreated plot was included and was also replicated four times. The average color of the bentgrass was visually evaluated at 6 weeks after treatment. Color was evaluated on a qualitative scale from 1-9, with 9 being the highest quality and 1 the lowest quality."}, "[4]": {"system": "creeping bentgrass (variety Penncross) turf", "test": "Bentgrass color rating after foliar spray (Example 3)", "settings": "6 weeks after treatment; Aliette 4 oz, Signature 4 and 8 oz, Pigment 6.8 and 13.6 g per 1000 sq. ft.; analysis of variance", "quoted_text": "Fosetyl-al (in the form of Aliette brand fungicide), fosetyl-al plus Pigment Green 7 (in the form of Signature brand Aliette fungicide), and Pigment Green 7 were separately suspended in water and applied as a foliar spray to creeping bentgrass (variety Penncross) turf with a pressurized sprayer at a spray volume of 1.37 gallons of water per 1000 sq. ft. (ca. 560 l/ha).\nTreatments were applied at the following rates: • Aliette 4 oz/1000 sq. ft. (ca. 1.3 mL/m2) • Signature 4 oz/1000 sq. ft. (ca. 1.3 mL/m2) • Signature 8 oz/1000 sq. ft. (ca. 2.5 mL/m2) • Pigment 6.8 g/1000 sq. ft. (0.73 kg/ha) • Pigment 13.6 g/1000 sq. ft. (1.5 kg/ha)"}, "[5]": {"system": "creeping bentgrass (variety Penncross) turf", "test": "Bentgrass color rating after foliar spray (Example 4)", "settings": "6 weeks after treatment; iprodione 4 oz/1000 sq. ft.; Pigment Green 7 6.8 or 13.6 g/1000 sq. ft. in combination, 13.6 g alone", "source_text": "as §3\nThe procedure of Example 2 was repeated using iprodione fungicide (in the form of 26 GT brand iprodione fungicide) at 4 oz/1000 sq. ft. (ca. 1.3 mL/m2), iprodione at 4 oz/1000 sq. ft. (ca. 1.3 mL/m2) plus Pigment Green 7 at 6.8 g/1000 sq. ft. (0.73 kg/ha), iprodione at 4 oz/1000 sq. ft. plus Pigment Green 7 at 13.6 g/1000 sq. ft. (1.5 kg/ha), and Pigment Green 7 at 13.6 g/1000 sq. ft. (1.5 kg/ha). At 6 weeks after treatment, the color ratings were as follows."}, "[6]": {"system": "Penncross creeping bentgrass", "test": "Influence of foliar applied phthalocyanine pigment on creeping bentgrass photosynthesis (Example 9)", "experimental": "Studies carried out as a follow-up to Example 1 were conducted in 2005 to determine the influence of foliar applied phthalocyanine pigment on creeping bentgrass photosynthesis.\n“Penncross” creeping bentgrass plants were grown in a growth chamber on a sand soil in PVC tubes (10 cm in diameter) maintained at 20° C. Plants were maintained at a canopy height of approximately 5 cm and a nutrient solution was applied weekly to maintain adequate fertility. Four plants were treated with Pigment Green 7 at a rate of 6.92 g/1000 sq. ft. (0.74 kg/ha) (with 0.6% Tween 20 being added to keep the pigment on the leaves for better absorption) and four plants were left untreated to serve as the controls (being sprayed with water only). Photochemical efficiency, chlorophyll content, and single leaf net photosynthesis were measured at one, three, seven, and fourteen days after application. Different light intensities of 1500, 750, 500, 250, 150, 50, and 0 μmol m−2 s−1 of photosynthetically active radiation (PAR, 400-700 nm) were generated inside the leaf chamber by an LED light source to generate a light response curve. Net photosynthesis was measured as the rate of CO2 uptake φmol m−2s−1). […] Photosynthesis was higher from the first day after application and all subsequent sampling dates. […] However at intensities of from 50 to 1500 μmol photons m−2 s−1 treated plants were more efficient in utilizing the constant amount of light produced in the leaf chamber."}, "[7]": {"settings": "20° C., 6.92 g/1000 sq. ft. with 0.6% Tween 20, 1, 3, 7, 14 days after application"}},
  "data": [
    {"substance": "Pigment Green 7", "values": [
      {"measurement": "Shoot growth rate in canopy height", "setting": "[1]", "result": "higher with application of Signature fungicide and Pigment Green 7 than with application of Aliette fungicide and water"},
      {"measurement": "Tiller density, difference among applications", "setting": "[2]", "result": "no significant difference"},
      {"measurement": "Color rating (visual, scale 1-9) versus untreated check", "setting": "[3]", "result": "significantly different than the untreated check"},
      {"measurement": "Color rating versus untreated check", "setting": "[4]", "result": "significantly different than the untreated check"},
      {"measurement": "Color rating versus untreated check", "setting": "[5]", "result": "significantly greener than the untreated"},
      {"measurement": "Light compensation point", "setting": "[6]; 6.92 g/1000 sq. ft. foliar application", "result": "unaltered by treatment"},
      {"measurement": "Photochemical efficiency (Fv/Fm), treated versus control plants", "setting": "[6]; [7]", "result": "No differences"},
      {"measurement": "Total chlorophyll per gram of tissue, treated versus control plants", "setting": "[6]; [7]", "result": "no statistically significant differences"},
      {"measurement": "Single leaf net photosynthesis (rate of CO2 uptake), treated versus control plants", "setting": "[6]; all light intensities greater than 50 μmol photons m−2 s−1, 6.92 g/1000 sq. ft., from first day and all subsequent sampling dates", "result": "higher for treated plants compared to controls"},
      {"measurement": "Stability after foliar application (from higher net photosynthesis on every date)", "setting": "[6]; on bentgrass leaves, 6.92 g/1000 sq. ft.", "result": "stable for at least fourteen days after foliar application"}
    ]}
  ]
}
